Results from patent US20240238281A1, “PIPERAZINE DERIVATIVES AND APPLICATION THEREOF” (priority 2021, published 2024).
Where a name gives a salt, the structure may show the parent alone. Read-outs that look alike come from different tables or passages of the source.

Experiments:
Assay type in all cases: cell-based
MC5R = biological target: T1, MC5R (Homo sapiens, UniProt P33032); assay: In vitro activity of MCR receptors, intracellular cAMP signal (HEK293T/MCR cell line), MC5R
T1 construct: expressed in transfected cells
Method: (§1) Test purpose: to evaluate the agonistic effect of the compound on MCRs by detecting intracellular cAMP signal changes.
(§2) Cells were resuspended with 1×PBS+500 μM IBMX. 10 μL of the cell suspension was added into a 384-well plate to be tested, and the cell concentration was adjusted to 1×10^4 cells per well for later use. A pre-prepared solution of the compound to be tested was added, and dimethyl sulfoxide of the same volume was added to blank control wells. The test plate was centrifuged at 300 rpm for 1 minute, incubated at 37° C. for 30 minutes, and added with 5 μL of cAMP-d2 and 5 μL of a CAMP-cry antibody detection reagent. The test plate was centrifuged at 300 rpm for 1 minute, and incubated at room temperature for 60 minutes. The test plate was placed in the Envision multifunctional microplate reader for reading, with a detection wavelength of 665/615 nm.

MC1R = biological target: T2, MC1R (Homo sapiens, UniProt Q01726); assay: In vitro activity of MCR receptors, intracellular cAMP signal (HEK293T/MCR cell line), MC1R
T2 construct: expressed in transfected cells
Method: as §1
as §2, with “minutes.” for “minutes. The test plate was placed in the Envision multifunctional microplate reader for reading, with a detection wavelength of 665/615 nm.”

MC4R = biological target: T3, MC4R (Homo sapiens, UniProt P32245); assay: In vitro activity of MCR receptors, intracellular cAMP signal (HEK293T/MCR cell line), MC4R
T3 construct: expressed in transfected cells
Method: as §1, §2

MC3R = biological target: T4, MC3R (Homo sapiens, UniProt P41968); assay: In vitro activity of MCR receptors, intracellular cAMP signal (HEK293T/MCR cell line), MC3R
T4 construct: expressed in transfected cells
Method: as §1
as §2, with “minutes.” for “minutes. The test plate was placed in the Envision multifunctional microplate reader for reading, with a detection wavelength of 665/615 nm.”

[1] = cAMP, HEK293T/MCR cell line, read-out: MC5R EC50
[2] = cAMP, HEK293T/MCR cell line, read-out: MC1R EC50
[3] = cAMP, HEK293T/MCR cell line, read-out: MC4R EC50
[4] = cAMP, HEK293T/MCR cell line, read-out: MC3R EC50

T4 sequence (P41968 whole entry): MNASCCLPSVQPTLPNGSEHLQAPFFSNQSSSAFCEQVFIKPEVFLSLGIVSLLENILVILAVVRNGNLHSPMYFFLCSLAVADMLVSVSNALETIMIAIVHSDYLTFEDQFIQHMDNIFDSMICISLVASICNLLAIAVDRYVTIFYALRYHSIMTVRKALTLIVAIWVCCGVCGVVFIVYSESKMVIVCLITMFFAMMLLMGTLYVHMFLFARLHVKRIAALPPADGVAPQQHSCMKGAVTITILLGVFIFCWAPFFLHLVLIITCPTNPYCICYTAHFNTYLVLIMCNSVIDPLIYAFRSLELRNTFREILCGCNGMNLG
T2 sequence (Q01726 whole entry): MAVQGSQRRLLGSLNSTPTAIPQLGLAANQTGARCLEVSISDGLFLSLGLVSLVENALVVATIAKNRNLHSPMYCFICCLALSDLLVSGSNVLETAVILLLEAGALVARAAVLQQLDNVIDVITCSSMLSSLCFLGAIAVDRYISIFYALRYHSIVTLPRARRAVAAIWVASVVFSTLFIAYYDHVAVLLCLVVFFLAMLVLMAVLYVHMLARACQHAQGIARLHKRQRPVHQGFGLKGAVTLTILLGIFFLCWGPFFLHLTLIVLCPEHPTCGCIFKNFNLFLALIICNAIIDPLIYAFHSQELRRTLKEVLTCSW
T3 sequence (P32245 whole entry): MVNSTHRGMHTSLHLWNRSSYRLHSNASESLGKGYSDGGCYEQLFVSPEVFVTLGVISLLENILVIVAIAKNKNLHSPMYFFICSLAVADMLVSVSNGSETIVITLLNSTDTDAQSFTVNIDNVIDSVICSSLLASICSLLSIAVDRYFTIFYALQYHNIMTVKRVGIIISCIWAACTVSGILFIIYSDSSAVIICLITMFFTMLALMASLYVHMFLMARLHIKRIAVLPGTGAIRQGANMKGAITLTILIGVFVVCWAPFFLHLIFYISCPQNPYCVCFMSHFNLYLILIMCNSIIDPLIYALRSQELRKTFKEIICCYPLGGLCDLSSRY
T1 sequence (P33032 whole entry): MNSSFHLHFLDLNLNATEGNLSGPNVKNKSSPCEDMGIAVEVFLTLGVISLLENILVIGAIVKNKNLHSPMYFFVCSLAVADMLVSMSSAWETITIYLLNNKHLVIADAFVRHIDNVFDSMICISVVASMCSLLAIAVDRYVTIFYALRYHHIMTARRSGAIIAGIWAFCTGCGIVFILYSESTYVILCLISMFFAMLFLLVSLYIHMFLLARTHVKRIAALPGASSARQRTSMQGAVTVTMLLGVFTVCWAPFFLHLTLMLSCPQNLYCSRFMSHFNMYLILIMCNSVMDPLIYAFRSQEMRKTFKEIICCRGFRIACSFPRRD

Row | Structure (SMILES) | EC50 (MC5R; [1]) [nM] | EC50 (MC1R; [2]) [nM] | EC50 (MC4R; [3]) [nM] | EC50 (MC3R) [nM] | EC50 (MC5R) [nM] | EC50 (MC1R) [nM] | EC50 (MC4R) [nM] | EC50 (MC3R; [4]) [nM]
1 | C[C@@H]1CN(C(=O)C2CN(C(C)(C)C)CC2c2ccc(Cl)cc2)C[C@H](C)N1c1ccc(F)cc1 (single isomer, unassigned) [Compound 9] | – | – | – | – | 402 | 45 | 16 | 1760
2 | C[C@@H]1CN(C(=O)[C@@H]2CN(C(C)(C)C)C[C@H]2c2ccc(F)cc2F)C[C@H](C)N1c1ccccn1 [Compound 1] | – | – | – | – | > 10000 | 2330 | 148 | > 10000
3 | C[C@@H]1CN(C(=O)C2CN(c3ccccc3)CC2c2ccc(F)cc2F)C[C@H](C)N1c1ccc(F)cc1 (single isomer, unassigned) [Compound 13] | – | – | – | – | > 10000 | > 10000 | 50 | 3300
4 | C[C@@H]1CN(C(=O)C2CN(c3cccnn3)CC2c2ccc(F)cc2F)C[C@H](C)N1c1ccc(F)cc1 (single isomer, unassigned) [Compound 11] | – | – | – | – | 2130 | 82 | 0.4 | 26
5 | C[C@@H]1CN(C(=O)C2CN(C(C)(C)C)CC2c2ccc(F)cc2F)C[C@H](C)N1c1ccc(F)cc1 (single isomer, unassigned) [Compound 3] | – | – | – | 2400 | > 10000 | 300 | 30 | –
6 | C[C@@H]1CN(C(=O)C2CN(c3ccc(C#N)cn3)CC2c2ccc(F)cc2F)C[C@H](C)N1c1ccc(F)cc1 (single isomer, unassigned) [Compound 12] | – | – | – | – | 740 | 234 | 0.2 | 5
7 | C[C@@H]1CN(C(=O)C2CN(C(C)(C)C)CC2c2ccc(F)cc2F)C[C@H](C)N1c1ccc(C(F)(F)F)cc1 (single isomer, unassigned) [Compound 5] | – | – | – | – | > 10000 | 882 | 35 | 3500
8 | C[C@@H]1CN(C(=O)C2CN(C3CCOCC3)CC2c2ccc(Cl)cc2)C[C@H](C)N1c1ccc(F)cc1 (single isomer, unassigned) [Compound 16] | – | – | – | – | 1170 | 167 | 6 | 254

Second part, led by results:

Row | EC50 (MC5R; [1]) [nM] | EC50 (MC1R; [2]) [nM] | EC50 (MC4R; [3]) [nM] | EC50 (MC3R) [nM] | Structure (SMILES) | EC50 (MC5R) [nM] | EC50 (MC1R) [nM] | EC50 (MC4R) [nM] | EC50 (MC3R; [4]) [nM]
9 | > 10000 | 790 | 0.03 | 265 | CC1CC(N2CC(C(=O)N3C[C@@H](C)N(c4ccc(F)cc4)[C@@H](C)C3)C(c3ccc(F)cc3F)C2)CCO1 (single isomer, unassigned) [Compound 22a] | – | – | – | –
10 | > 10000 | 2010 | 26 | 3130 | C[C@@H]1CN(C(=O)C2CN(C3CCOC3)CC2c2ccc(F)cc2F)C[C@H](C)N1c1ccc(F)cc1 (single isomer, unassigned) [Compound 20a] | – | – | – | –
11 | > 10000 | 106 | 1.9 | 696 | C[C@@H]1CN(C(=O)C2CN([C@H]3CCO[C@@H](C)C3)C[C@H]2c2ccc(F)cc2F)C[C@H](C)N1c1ccc(F)cc1 (stereo partly drawn) [Compound 22d] | – | – | – | –
12 | > 10000 | 492 | 5.3 | 268 | C[C@@H]1CN(C(=O)C2CN(C3CCOC(C)(C)C3)CC2c2ccc(F)cc2F)C[C@H](C)N1c1ccc(F)cc1 (single isomer, unassigned) [Compound 21b] | – | – | – | –
13 | 1370 | 29 | 4 | 201 | C[C@@H]1CN(C(=O)[C@@H]2CN(C3CCCCC3)C[C@H]2c2ccc(F)cc2F)C[C@H](C)N1c1ccc(F)cc1 [Compound 18] | – | – | – | –
14 | 1150 | 80 | 24 | 2030 | C[C@@H]1CN(C(=O)[C@@H]2CN(C(C)(C)C)C[C@H]2c2ccc(F)cc2F)C[C@H](C)N1c1ccccc1 [Hydrochloride salt of compound 6] | – | – | – | –
15 | 8150 | 55 | 6.7 | 1100 | C[C@@H]1CN(C(=O)[C@@H]2CN(C3CCC3)C[C@H]2c2ccc(F)cc2F)C[C@H](C)N1c1ccc(F)cc1 [Compound 17] | – | – | – | –
16 | 1950 | 58 | 4 | 316 | CCC(C)(C)N1CC(C(=O)N2C[C@@H](C)N(c3ccc(F)cc3)[C@@H](C)C2)[C@H](c2ccc(F)cc2F)C1 (stereo partly drawn) [Compound 23] | – | – | – | –
17 | > 10000 | – | 3 | 574 | C[C@@H]1CN(C(=O)[C@@H]2CN(C3CCOCC3)C[C@H]2c2ccc(F)cc2F)C[C@H](C)N1c1ccc(Cl)cc1 [Compound 15] | – | 580 | – | –
18 | 919 | 575 | 10 | 672 | C[C@@H]1CN(C(=O)[C@@H]2CN(C3CCOCC3)C[C@H]2c2ccc(F)cc2F)C[C@H](C)N1c1ccc(F)c(F)c1 [Compound 14] | – | – | – | –
